Measurements published in patent US11427553B2, “Dihydrooxadiazinones” (Bayer Aktiengesellschaft, priority 2017, dated 2022).
pIC50: −log10 of the molar value.

Legend:
human full length PDE3A = human full length PDE3A (Homo sapiens (Human), UniProt Q14432); assay: Assay 4 PDE3A enzyme inhibition (3H-cAMP SPA); format: biochemical; conditions: Sf9 cell extract
How it was run: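 Enzyme: Sf9 extract with overexpressed full-length PDE3A; substrate [8-3H]cAMP, 0.025 μCi/well; 60 min, room temperature, Tris/HCl pH 7.5 buffer with MgCl2, EDTA, BSA.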

HeLa cells = assay: Assay 1 cell proliferation measurement (CTG, 72 h), HeLa; format: cell-based, human; conditions: Homo sapiens, HeLa; Assay 1, 72 h, Cell Titer Glo; read-out: HeLa IC50 [nM] (Cervical cancer)
How it was run: (§1)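 Cells were plated, grown overnight at 37 °C, then treated 72 h with a 10-step 2.5-fold dilution series from 100 nM maximum final (0.3% DMSO vehicle). Viability was read by CellTiter-Glo luminescence. IC50 from a 4-parameter fit, normalised to a 0 h plate (maximum inhibition) and DMSO control (minimum inhibition).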

human full length PDE3B = human full length PDE3B (Homo sapiens (Human), UniProt Q13370); assay: Assay 5 PDE3B enzyme inhibition (3H-cAMP SPA); format: biochemical; conditions: Sf9 cell extract
How it was run: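 Hydrolysis of tritiated cAMP by Sf9-expressed full-length human PDE3B proceeded 60 min at room temperature in Tris buffer pH 7.5 containing Mg2+, EDTA and BSA, with enzyme dilution keeping substrate consumption below 70%. IC50 derived from percent activity versus log compound concentration.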

SK-MEL-3 cells = assay: Assay 1 cell proliferation measurement (CTG, 72 h), SK-MEL-3; format: cell-based, human; conditions: Homo sapiens, SK-MEL3; Assay 1, 72 h, Cell Titer Glo; read-out: SK-MEL-3 IC50 [nM] (melanoma)
How it was run: as §1

Sequence of human full length PDE3A (Q14432 whole entry): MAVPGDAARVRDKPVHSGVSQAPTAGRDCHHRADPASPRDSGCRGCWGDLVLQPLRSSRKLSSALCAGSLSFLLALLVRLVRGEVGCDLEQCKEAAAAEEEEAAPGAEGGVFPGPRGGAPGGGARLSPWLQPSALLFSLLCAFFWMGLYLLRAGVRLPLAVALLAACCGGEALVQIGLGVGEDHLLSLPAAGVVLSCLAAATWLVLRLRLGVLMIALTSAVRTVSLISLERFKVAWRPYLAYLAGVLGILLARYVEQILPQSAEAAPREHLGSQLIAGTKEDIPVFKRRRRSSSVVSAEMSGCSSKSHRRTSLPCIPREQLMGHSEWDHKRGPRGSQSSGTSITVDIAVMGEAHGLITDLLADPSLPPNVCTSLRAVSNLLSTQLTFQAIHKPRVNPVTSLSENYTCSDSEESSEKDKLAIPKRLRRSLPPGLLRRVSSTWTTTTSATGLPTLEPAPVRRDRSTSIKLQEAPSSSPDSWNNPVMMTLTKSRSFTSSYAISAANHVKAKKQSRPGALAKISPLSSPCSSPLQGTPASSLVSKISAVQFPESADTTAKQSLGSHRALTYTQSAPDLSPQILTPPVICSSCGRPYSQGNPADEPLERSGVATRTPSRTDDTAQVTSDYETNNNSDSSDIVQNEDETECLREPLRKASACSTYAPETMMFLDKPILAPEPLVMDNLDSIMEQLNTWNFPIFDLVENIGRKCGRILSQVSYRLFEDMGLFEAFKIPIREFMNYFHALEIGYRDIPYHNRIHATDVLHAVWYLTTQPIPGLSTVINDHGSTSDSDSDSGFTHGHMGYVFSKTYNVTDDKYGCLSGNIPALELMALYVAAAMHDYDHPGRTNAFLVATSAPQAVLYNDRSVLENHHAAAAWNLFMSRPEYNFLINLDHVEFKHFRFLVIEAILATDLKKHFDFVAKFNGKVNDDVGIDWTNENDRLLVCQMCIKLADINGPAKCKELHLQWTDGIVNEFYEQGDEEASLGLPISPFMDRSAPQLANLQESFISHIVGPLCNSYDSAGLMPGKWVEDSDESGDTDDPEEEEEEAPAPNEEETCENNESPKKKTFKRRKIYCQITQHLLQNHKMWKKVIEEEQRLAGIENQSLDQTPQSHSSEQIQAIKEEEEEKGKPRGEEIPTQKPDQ
Sequence of human full length PDE3B (Q13370 whole entry): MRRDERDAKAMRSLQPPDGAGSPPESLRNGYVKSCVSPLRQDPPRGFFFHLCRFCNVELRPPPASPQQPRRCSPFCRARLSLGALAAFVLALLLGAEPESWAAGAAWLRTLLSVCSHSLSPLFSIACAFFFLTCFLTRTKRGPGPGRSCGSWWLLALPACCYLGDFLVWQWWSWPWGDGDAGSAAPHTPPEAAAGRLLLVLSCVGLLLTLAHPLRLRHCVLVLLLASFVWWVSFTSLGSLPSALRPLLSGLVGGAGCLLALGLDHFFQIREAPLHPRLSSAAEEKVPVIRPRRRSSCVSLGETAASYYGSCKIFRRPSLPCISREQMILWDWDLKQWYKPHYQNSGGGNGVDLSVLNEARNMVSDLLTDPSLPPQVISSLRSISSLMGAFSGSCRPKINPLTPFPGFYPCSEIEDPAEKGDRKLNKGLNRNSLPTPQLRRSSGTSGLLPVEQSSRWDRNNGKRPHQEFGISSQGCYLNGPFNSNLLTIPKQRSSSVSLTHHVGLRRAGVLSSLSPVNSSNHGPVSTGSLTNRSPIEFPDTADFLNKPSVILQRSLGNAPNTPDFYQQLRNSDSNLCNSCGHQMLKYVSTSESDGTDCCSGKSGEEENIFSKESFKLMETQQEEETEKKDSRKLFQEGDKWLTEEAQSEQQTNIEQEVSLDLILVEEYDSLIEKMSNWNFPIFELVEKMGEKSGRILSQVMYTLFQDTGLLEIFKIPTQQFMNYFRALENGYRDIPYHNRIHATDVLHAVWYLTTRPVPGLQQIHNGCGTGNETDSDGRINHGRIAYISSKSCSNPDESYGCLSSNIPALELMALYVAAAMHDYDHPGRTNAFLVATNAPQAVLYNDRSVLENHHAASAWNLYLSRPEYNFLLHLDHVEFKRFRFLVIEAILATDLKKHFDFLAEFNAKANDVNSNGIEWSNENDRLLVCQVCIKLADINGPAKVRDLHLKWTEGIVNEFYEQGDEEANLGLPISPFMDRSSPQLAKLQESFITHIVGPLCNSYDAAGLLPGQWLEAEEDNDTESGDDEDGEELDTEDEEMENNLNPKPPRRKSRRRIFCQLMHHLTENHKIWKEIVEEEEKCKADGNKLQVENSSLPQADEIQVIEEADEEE

Structure (SMILES) | pIC50 (human full length PDE3A) | IC50 (HeLa cells) | pIC50 (human full length PDE3B) | IC50 (SK-MEL-3 cells)
C[C@@H]1OC(=O)NN=C1c1ccc(-c2ccc(F)cc2F)c(C(F)(F)F)c1 [Example 177, (6S)-5-[2′,4′-Difluoro-2-(trifluoromethyl)[1,1′-biphenyl]-4-yl]-6-methyl-3,6-dihydro-2H-1,3,4-oxadiazin-2-one] | 6.80 | 12 nM | 6.89 | 17 nM
CCN(C)c1ccc(C2=NNC(=O)OC2)cc1C(F)(F)F [Example 223, 5-{4-[Ethyl(methyl)amino]-3-(trifluoromethyl)phenyl}-3,6-dihydro-2H-1,3,4-oxadiazin-2-one] | 6.85 | 6 nM | 7.00 | 9 nM
CCCCN(C)c1ccc(C2=NNC(=O)OC2)cc1C(F)(F)F [Example 134, 5-{4-[Butyl(methyl)amino]-3-(trifluoromethyl)phenyl}-3,6-dihydro-2H-1,3,4-oxadiazin-2-one] | 6.57 | 12 nM | 6.24 | 26 nM
Nc1ccc(-c2ccc(C3=NNC(=O)OC3)cc2C(F)(F)F)cc1F [Example 39, 5-[4′-Amino-3′-fluoro-2-(trifluoromethyl)biphenyl-4-yl]-3,6-dihydro-2H-1,3,4-oxadiazin-2-one] | 7.14 | 4 nM | 7.12 | 6 nM
CC(C)(O)CCNc1ccc(C2=NNC(=O)OC2)cc1C(F)(F)F [Example 319, 5-{4-[(3-hydroxy-3-methylbutyl)amino]-3-(trifluoromethyl)phenyl}-3,6-dihydro-2H-1,3,4-oxadiazin-2-one] | 7.15 | 61 nM | 6.74 | > 100 nM
O=C1NN=C(c2ccc(-c3cc(F)ccc3F)c(F)c2)CO1 [Example 100, 5-(2,2′,5′-Trifluoro[1,1′-biphenyl]-4-yl)-3,6-dihydro-2H-1,3,4-oxadiazin-2-one] | 7.32 | 5 nM | 7.18 | 9 nM
Nc1ccccc1-c1ccc(C2=NNC(=O)OC2)cc1F [Example 102, 5-(2′-Amino-2-fluoro[1,1′-biphenyl]-4-yl)-3,6-dihydro-2H-1,3,4-oxadiazin-2-one] | 6.77 | 23 nM | 6.55 | 40 nM
O=C1NN=C(c2ccc(-c3ccccn3)c(C(F)(F)F)c2)CO1 [Example 160, 5-[4-(Pyridin-2-yl)-3-(trifluoromethyl)phenyl]-3,6-dihydro-2H-1,3,4-oxadiazin-2-one] | < 6.00 | 27 nM | < 6.00 | 47 nM
Cc1cc(C2=NNC(=O)OC2)ccc1-c1cccc(F)c1 [Example 15, 5-(3′-Fluoro-2-methylbiphenyl-4-yl)-3,6-dihydro-2H-1,3,4-oxadiazin-2-one] | 6.96 | 8 nM | 6.96 | 16 nM
O=C1NN=C(c2ccc(-c3ccc(F)c(F)c3)c(C(F)(F)F)c2)CO1 [Example 61, 5-[3′,4′-Difluoro-2-(trifluoromethyl)biphenyl-4-yl]-3,6-dihydro-2H-1,3,4-oxadiazin-2-one] | 6.64 | 10 nM | 6.49 | 16 nM
Cc1cccc(-c2ccc(C3=NNC(=O)OC3)cc2F)c1 [Example 87, 5-(2-Fluoro-3′-methylbiphenyl-4-yl)-3,6-dihydro-2H-1,3,4-oxadiazin-2-one] | 7.09 | 10 nM | 6.64 | 32 nM
C[C@@H]1OC(=O)NN=C1c1ccc(-c2cccc(F)c2)c(C(F)(F)F)c1 [Example 181, (6S)-5-[3′-Fluoro-2-(trifluoromethyl)[1,1′-biphenyl]-4-yl]-6-methyl-3,6-dihydro-2H-1,3,4-oxadiazin-2-one] | 7.13 | 3 nM | 7.11 | 6 nM
O=C1NN=C(c2ccc(N3CCOCC3)c(C(F)(F)F)c2)CO1 [Example 65, 5-[4-(Morpholin-4-yl)-3-(trifluoromethyl)phenyl]-3,6-dihydro-2H-1,3,4-oxadiazin-2-one] | 7.60 | 2 nM | 7.52 | 3 nM
N#Cc1cc(C2=NNC(=O)OC2)ccc1N1CCOCC1 [Example 22, 2-(Morpholin-4-yl)-5-(2-oxo-3,6-dihydro-2H-1,3,4-oxadiazin-5-yl)benzonitrile] | 7.28 | 26 nM | 7.48 | 51 nM
C[C@@H]1OC(=O)NN=C1c1ccc(-c2cccc(N)c2)c(C(F)(F)F)c1 [Example 176, (6S)-5-[3′-Amino-2-(trifluoromethyl)[1,1′-biphenyl]-4-yl]-6-methyl-3,6-dihydro-2H-1,3,4-oxadiazin-2-one] | 7.43 | 2 nM | 7.46 | 4 nM
O=C1NN=C(c2ccc(C3CCCOC3)c(C(F)(F)F)c2)CO1 (racemic) [Example 271, (rac)-5-{4-[Oxan-3-yl]-3-(trifluoromethyl)phenyl}-3,6-dihydro-2H-1,3,4-oxadiazin-2-one] | 7.57 | 1 nM | 7.60 | 3 nM
C[C@H](O)CNc1ccc(C2=NNC(=O)OC2)cc1C(F)(F)F [Example 218, 5-[4-{[(2S)-2-Hydroxypropyl]amino}-3-(trifluoromethyl)phenyl]-3,6-dihydro-2H-1,3,4-oxadiazin-2-one] | 7.46 | 3 nM | 7.05 | 4 nM
C[C@@H]1OC(=O)NN=C1c1ccc(-c2ccc(F)c(F)c2F)c(C(F)(F)F)c1 [Example 170, (6S)-6-Methyl-5-[2′,3′,4′-trifluoro-2-(trifluoromethyl)[1,1′-biphenyl]-4-yl]-3,6-dihydro-2H-1,3,4-oxadiazin-2-one] | 6.72 | 27 nM | 6.74 | 40 nM
Cc1ccc(-c2ccc(C3=NNC(=O)OC3)cc2C(F)(F)F)nc1 [Example 157, 5-[4-(5-Methylpyridin-2-yl)-3-(trifluoromethyl)phenyl]-3,6-dihydro-2H-1,3,4-oxadiazin-2-one] | < 6.00 | 44 nM | < 6.00 | 71 nM
O=C1NN=C(c2ccc(C3=CCCOC3)c(C(F)(F)F)c2)CO1 [Example 142, 5-[4-(5,6-dihydro-2H-pyran-3-yl)-3-(trifluoromethyl)phenyl]-3,6-dihydro-2H-1,3,4-oxadiazin-2-one] | 7.60 | 3 nM | 7.33 | 4 nM
Cc1n[nH]c(C)c1-c1ccc(C2=NNC(=O)OC2)cc1C(F)(F)F [Example 128, 5-[4-(3,5-Dimethyl-1H-pyrazol-4-yl)-3-(trifluoromethyl)phenyl]-3,6-dihydro-2H-1,3,4-oxadiazin-2-one] | 6.55 | > 100 nM | 6.57 | > 100 nM
CC(C)=Cc1ccc(C2=NNC(=O)OC2)cc1C(F)(F)F [Example 63, 5-[4-(2-Methylprop-1-en-1-yl)-3-(trifluoromethyl)phenyl]-3,6-dihydro-2H-1,3,4-oxadiazin-2-one] | 7.51 | 1 nM | 7.48 | 3 nM
C[C@@H]1OC(=O)NN=C1c1ccc(-c2ccc3cc[nH]c3c2)c(C(F)(F)F)c1 [Example 185, (6S)-5-[4-(1H-Indol-6-yl)-3-(trifluoromethyl)phenyl]-6-methyl-3,6-dihydro-2H-1,3,4-oxadiazin-2-one] | 7.31 | 4 nM | 7.32 | 6 nM
CC1OC(=O)NN=C1c1ccc(Br)cc1 (racemic) [Intermediate 72, (rac)-5-(4-Bromophenyl)-6-methyl-3,6-dihydro-2H-1,3,4-oxadiazin-2-one] | 6.49 | 78 nM | 6.40 | 260 nM
O=C1NN=C(c2ccc(-c3cccnc3)c(F)c2)CO1 [Example 108, 5-[3-Fluoro-4-(pyridin-3-yl)phenyl]-3,6-dihydro-2H-1,3,4-oxadiazin-2-one] | 7.59 | 6 nM | 7.66 | 13 nM
Cn1ncc2ccc(-c3ccc(C4=NNC(=O)OC4)cc3C(F)(F)F)cc21 [Example 75, 5-[4-(1-Methyl-1H-indazol-6-yl)-3-(trifluoromethyl)phenyl]-3,6-dihydro-2H-1,3,4-oxadiazin-2-one] | 7.51 | 22 nM | 7.11 | 44 nM
C[C@@H]1OC(=O)NN=C1c1ccc(-c2cccc(O)c2)c(C(F)(F)F)c1 [Example 175, (6S)-5-[3′-Hydroxy-2-(trifluoromethyl)[1,1′-biphenyl]-4-yl]-6-methyl-3,6-dihydro-2H-1,3,4-oxadiazin-2-one] | 7.59 | 6 nM | 7.62 | 3 nM
O=C1NN=C(c2ccc(-c3c[nH]nc3C(F)(F)F)c(C(F)(F)F)c2)CO1 [Example 130, 5-{3-(Trifluoromethyl)-4-[3-(trifluoromethyl)-1H-pyrazol-4-yl]phenyl}-3,6-dihydro-2H-1,3,4-oxadiazin-2-one] | 6.70 | > 100 nM | 6.80 | 25600 nM
